Here are results for ten molecules from ChEMBL document CHEMBL3137667, “[Drug-induced liver injury; fourteenth updated edition of the bibliographic database of liver injuries and related drugs]” (Gastroenterol Clin Biol, 2004).

For data set [1] the following is noted: human.
For data set [2] the following is noted: human, serum.
For data set [3] the following is noted: human. This is another data set of the same source.
For data set [4] the following is noted: human. The source holds these as a separate data set.
The nature of data set [5]: Highest frequency of acute liver toxicity observed during clinical trials, expressed as a percentage. [column '% AIGUE' in source]. Conditions: human.
For data set [6] the following is noted: human. This is another data set of the same source.
The conditions of data set [7]: human. This is another data set of the same source.
For data set [8] the following is noted: human, serum, 4383 h.
Data set [9] can be described thus: Highest frequency of moderate liver toxicity observed during clinical trials, expressed as a percentage. [column '% BIOL' in source]. As to conditions: human.
The conditions of data set [10]: human, serum. This is another data set of the same source.
For data set [11] the following is noted: human. The source holds these as a separate data set.
For data set [12] the following is noted: human. This is another data set of the same source.
For data set [13] the following is noted: human. This is another data set of the same source.
Data set [14] can be described thus: Times to onset, minimal and maximal, observed in the indexed observations. [column 'DELAI' in source]. As to conditions: human.
The conditions of data set [15]: human. The source holds these as a separate data set.
The nature of data set [16]: Proposed mechanism(s) of liver damage. [column 'MEC' in source]. As to conditions: human.
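For Hepatotoxicity (association with vascular disease) in this document: count of indexed literature references reporting vascular liver injury in humans, e.g. peliosis hepatitis, hepatic veno-occlusive disease or Budd-Chiari syndrome.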
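For Hepatotoxicity (benign tumour) in this document: value is a count of indexed literature references citing a benign tumour confirmed by histopathology.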
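For Hepatotoxicity (choleostasis) in this document: human cholestatic liver injury, shown by histopathology or by peak ALT or AST elevation over alkaline phosphatase ratio below 2, value counts indexed literature reports.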
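For Hepatotoxicity (chronic liver disease) in this document: chronic liver injury confirmed by histopathology or persistently raised serum aminotransferase activity beyond 6 months, value given as the count of indexed literature references.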
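For Hepatotoxicity (cirrhosis) in this document: value is a count of indexed literature references reporting cirrhosis confirmed by histopathology.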
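For Hepatotoxicity (cytolytic) in this document: human cytolytic liver injury, shown by histopathology or by a ratio above 5 of peak ALT or AST elevation to alkaline phosphatase elevation, value counts indexed references.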
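For Hepatotoxicity (granulomatous hepatitis) in this document: value is a count of indexed literature references reporting granulomatous liver disease confirmed by histopathology.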
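For Hepatotoxicity (malignant tumour) in this document: malignant tumour confirmed by histopathology, value gives the count of indexed literature references reporting it.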
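For Hepatotoxicity (severe hepatitis) in this document: human clinical data: severe hepatitis, meaning potentially life-threatening liver failure or clinically observed cases, the value counts how many indexed literature references report it.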
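For Hepatotoxicity (steatosis) in this document: steatosis confirmed by histopathology, value is the count of indexed references.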

Regarding `CNC=O`, the “Hepatotoxicity (malignant tumour)” value in [1] was determined as 0. Further, the entries for the “Hepatotoxicity (acute)” value in [2] and in data set [5] were 4 and 0%, respectively. In [3], the “Hepatotoxicity (association with vascular disease)” value is reported as 0. The “Hepatotoxicity (choleostasis)” value in data set [4] is reported as 0. Moreover, the “Hepatotoxicity (cirrhosis)” value in data set [6] was determined as 0. Further, the “Hepatotoxicity (granulomatous hepatitis)” value in [7] was determined as 0. Besides, the “Hepatotoxicity (chronic liver disease)” value in data set [8] was determined as 0. The results for the “Hepatotoxicity (moderate)” value in data set [9] and in data set [10] were 75% and 13, respectively. Further, in data set [11], the “Hepatotoxicity (steatosis)” value worked out at 0. Moreover, the “Hepatotoxicity (severe hepatitis)” value in data set [12] is 2. For the same molecule, the “Hepatotoxicity (cytolytic)” value in [13] is reported as 1. Moreover, the “Hepatotoxicity (time to onset)” value in data set [14] was determined as 3 days - 1 week. In addition, the “Hepatotoxicity (benign tumour)” value in data set [15] came out at 0. The “Hepatotoxicity (mechanism)” value in data set [16] is listed as “Dose-dependant”.

`O=c1n(CCCN2CCN(c3cccc(Cl)c3)CC2)nc2ccccn12` [TRAZODONE]: in [1], the “Hepatotoxicity (malignant tumour)” value is 0. The “Hepatotoxicity (acute)” value in data set [2] worked out at 8; in data set [5], 0%. In addition, the “Hepatotoxicity (association with vascular disease)” value in data set [3] came to 0. For the same molecule, the “Hepatotoxicity (choleostasis)” value in [4] came out at 3. Also, the “Hepatotoxicity (cirrhosis)” value in data set [6] is on record as 0. For the same molecule, the “Hepatotoxicity (granulomatous hepatitis)” value in [7] was determined as 0. For the same molecule, in data set [8], the “Hepatotoxicity (chronic liver disease)” value came to 1. The “Hepatotoxicity (moderate)” value amounted to 0% in [9] and 0 in data set [10]. In addition, the “Hepatotoxicity (steatosis)” value in data set [11] was determined as 0. For the same molecule, the “Hepatotoxicity (severe hepatitis)” value in data set [12] is reported as 1. Besides, in data set [13], the “Hepatotoxicity (cytolytic)” value is 5. Further, the “Hepatotoxicity (time to onset)” value in data set [14] stood at 5 days - 18 months. Also, the “Hepatotoxicity (benign tumour)” value in [15] is given as 0. For the same molecule, the “Hepatotoxicity (mechanism)” value in data set [16] is given as “Allergic”.

On to `O=C1Nc2ccc(Cl)cc2[C@@](C#CC2CC2)(C(F)(F)F)O1` [EFAVIRENZ], for which, in data set [1], the “Hepatotoxicity (malignant tumour)” value is on record as 0. The “Hepatotoxicity (acute)” value came out at 8 in data set [2] and 10.9% in data set [5]. Further, in [3], the “Hepatotoxicity (association with vascular disease)” value was found to be 0. Besides, the “Hepatotoxicity (choleostasis)” value in data set [4] was determined as 2. Moreover, in data set [6], the “Hepatotoxicity (cirrhosis)” value was determined as 0. In addition, the “Hepatotoxicity (granulomatous hepatitis)” value in data set [7] amounted to 0. For the same molecule, the “Hepatotoxicity (chronic liver disease)” value in data set [8] is 0. For the same molecule, the “Hepatotoxicity (moderate)” value in data set [9] came out at 18.8%; in data set [10] it was 2. Further, the “Hepatotoxicity (steatosis)” value in data set [11] was determined as 0. For the same molecule, in data set [12], the “Hepatotoxicity (severe hepatitis)” value came out at 4. Also, in data set [13], the “Hepatotoxicity (cytolytic)” value is recorded as 8. Also, in data set [14], the “Hepatotoxicity (time to onset)” value is on record as 10 days - 4 weeks. In addition, the “Hepatotoxicity (benign tumour)” value in data set [15] is given as 0. Further, in data set [16], the “Hepatotoxicity (mechanism)” value is recorded as “Allergic”.

`Nc1ccc(S(N)(=O)=O)cc1` [SULFANILAMIDE]: in [1], the “Hepatotoxicity (malignant tumour)” value is 0. Also, the “Hepatotoxicity (acute)” value worked out at 5 in data set [2] and 0% in data set [5]. Also, the “Hepatotoxicity (association with vascular disease)” value in [3] was determined as 0. In [4], the “Hepatotoxicity (choleostasis)” value came to 1. In [6], the “Hepatotoxicity (cirrhosis)” value was found to be 0. For the same molecule, the “Hepatotoxicity (granulomatous hepatitis)” value in data set [7] is recorded as 0. Besides, the “Hepatotoxicity (chronic liver disease)” value in [8] is 0. For the same molecule, the “Hepatotoxicity (moderate)” value in [9] was 0%; in data set [10], 0. The “Hepatotoxicity (steatosis)” value in data set [11] came out at 1. The “Hepatotoxicity (severe hepatitis)” value in [12] is listed as 5. Further, the “Hepatotoxicity (cytolytic)” value in data set [13] is recorded as 5. In [14], the “Hepatotoxicity (time to onset)” value was found to be 2 weeks - 3 months. Moreover, the “Hepatotoxicity (benign tumour)” value in data set [15] stood at 0. Further, the “Hepatotoxicity (mechanism)” value in data set [16] is on record as “Allergic”.

As to `Nc1nc(=O)[nH]cc1F` [FLUCYTOSINE], the “Hepatotoxicity (malignant tumour)” value in data set [1] worked out at 0. For the same molecule, the results for the “Hepatotoxicity (acute)” value in data set [2] and in [5] were 5 and 2%, respectively. The “Hepatotoxicity (association with vascular disease)” value in [3] came to 0. For the same molecule, the “Hepatotoxicity (choleostasis)” value in data set [4] was 3. The “Hepatotoxicity (cirrhosis)” value in data set [6] was 0. For the same molecule, the “Hepatotoxicity (granulomatous hepatitis)” value in data set [7] was determined as 0. Further, in data set [8], the “Hepatotoxicity (chronic liver disease)” value worked out at 0. In addition, the “Hepatotoxicity (moderate)” value in [9] was 55%; in data set [10], 22. Besides, in data set [11], the “Hepatotoxicity (steatosis)” value is given as 0. Also, the “Hepatotoxicity (severe hepatitis)” value in data set [12] came out at 2. Moreover, the “Hepatotoxicity (cytolytic)” value in [13] is given as 3. Moreover, the “Hepatotoxicity (time to onset)” value in [14] is listed as 2 weeks - 2 months. Further, the “Hepatotoxicity (benign tumour)” value in data set [15] is given as 0. Moreover, the “Hepatotoxicity (mechanism)” value in data set [16] was “Dose-dependant”.

Take `CC(=O)CCC1C(=O)N(c2ccccc2)N(c2ccccc2)C1=O` [KEBUZONE]: in [1], the “Hepatotoxicity (malignant tumour)” value is 0. Moreover, the “Hepatotoxicity (acute)” value is on record as 4 in data set [2] and 2.7% in data set [5]. For the same molecule, in data set [3], the “Hepatotoxicity (association with vascular disease)” value is 0. For the same molecule, in data set [4], the “Hepatotoxicity (choleostasis)” value is recorded as 3. For the same molecule, the “Hepatotoxicity (cirrhosis)” value in data set [6] is listed as 0. In addition, in data set [7], the “Hepatotoxicity (granulomatous hepatitis)” value came out at 0. Also, in data set [8], the “Hepatotoxicity (chronic liver disease)” value turned out to be 0. For the same molecule, the figures for the “Hepatotoxicity (moderate)” value in data set [9] and in data set [10] were 26.7% and 1, respectively. Besides, in [11], the “Hepatotoxicity (steatosis)” value was 0. Also, the “Hepatotoxicity (severe hepatitis)” value in data set [12] was found to be 0. For the same molecule, the “Hepatotoxicity (cytolytic)” value in [13] worked out at 3. Further, the “Hepatotoxicity (time to onset)” value in data set [14] is reported as 1 week - 1 month. Besides, the “Hepatotoxicity (benign tumour)” value in data set [15] was 0. Further, in [16], the “Hepatotoxicity (mechanism)” value is reported as “Allergic”.

`Cc1c(N(C)CS(=O)(=O)[O-])c(=O)n(-c2ccccc2)n1C.[Na+]` [DIPYRONE SODIUM]: the “Hepatotoxicity (malignant tumour)” value in data set [1] was determined as 0. Moreover, the “Hepatotoxicity (acute)” value was found to be 3 in data set [2] and 0% in data set [5]. In addition, the “Hepatotoxicity (association with vascular disease)” value in [3] was found to be 0. For the same molecule, the “Hepatotoxicity (choleostasis)” value in data set [4] was determined as 0. Also, the “Hepatotoxicity (cirrhosis)” value in data set [6] came to 0. In data set [7], the “Hepatotoxicity (granulomatous hepatitis)” value is reported as 0. In data set [8], the “Hepatotoxicity (chronic liver disease)” value amounted to 0. The “Hepatotoxicity (moderate)” value is on record as 0% in data set [9] and 1 in data set [10]. Further, the “Hepatotoxicity (steatosis)” value in data set [11] came to 0. For the same molecule, the “Hepatotoxicity (severe hepatitis)” value in data set [12] is on record as 0. For the same molecule, the “Hepatotoxicity (cytolytic)” value in [13] was determined as 0. Also, the “Hepatotoxicity (time to onset)” value in data set [14] worked out at 2 hours - 18 days. Moreover, the “Hepatotoxicity (benign tumour)” value in data set [15] is listed as 0. For the same molecule, the “Hepatotoxicity (mechanism)” value in [16] is “Allergic”.

As for `CN[C@@H]1[C@H](O[C@H]2[C@H](O[C@H]3[C@H](O)[C@@H](O)[C@H](NC(=N)N)[C@@H](O)[C@@H]3NC(=N)N)O[C@@H](C)[C@]2(O)CO)O[C@@H](CO)[C@H](O)[C@H]1O` [DIHYDROSTREPTOMYCIN], in [1], the “Hepatotoxicity (malignant tumour)” value is 0. For the same molecule, the “Hepatotoxicity (acute)” value in data set [2] is 1; in data set [5], 0%. Besides, the “Hepatotoxicity (association with vascular disease)” value in [3] is recorded as 0. For the same molecule, the “Hepatotoxicity (choleostasis)” value in [4] is recorded as 0. Besides, the “Hepatotoxicity (cirrhosis)” value in data set [6] came to 0. The “Hepatotoxicity (granulomatous hepatitis)” value in data set [7] is 0. Also, in data set [8], the “Hepatotoxicity (chronic liver disease)” value was determined as 0. Further, the “Hepatotoxicity (moderate)” value in [9] is 0%; in data set [10], 0. In addition, the “Hepatotoxicity (steatosis)” value in [11] amounted to 0. Also, the “Hepatotoxicity (severe hepatitis)” value in data set [12] was determined as 0. Also, the “Hepatotoxicity (cytolytic)” value in data set [13] amounted to 1. In addition, in [14], the “Hepatotoxicity (time to onset)” value is < 1 days. Further, the “Hepatotoxicity (benign tumour)” value in [15] is on record as 0. In addition, the “Hepatotoxicity (mechanism)” value in data set [16] is recorded as “Allergic”.

For `CNNCc1ccc(C(=O)NC(C)C)cc1` [PROCARBAZINE], in data set [1], the “Hepatotoxicity (malignant tumour)” value is recorded as 1. Further, the figures for the “Hepatotoxicity (acute)” value in data set [2] and in data set [5] were 2 and 1%, respectively. In data set [3], the “Hepatotoxicity (association with vascular disease)” value is 0. For the same molecule, in [4], the “Hepatotoxicity (choleostasis)” value is 0. For the same molecule, the “Hepatotoxicity (cirrhosis)” value in data set [6] was determined as 0. In addition, the “Hepatotoxicity (granulomatous hepatitis)” value in data set [7] is recorded as 1. In data set [8], the “Hepatotoxicity (chronic liver disease)” value stood at 0. The “Hepatotoxicity (moderate)” value in data set [9] is listed as 0%; in data set [10], 0. The “Hepatotoxicity (steatosis)” value in [11] stood at 0. The “Hepatotoxicity (severe hepatitis)” value in [12] was 0. Moreover, the “Hepatotoxicity (cytolytic)” value in [13] is on record as 2. Besides, the “Hepatotoxicity (time to onset)” value in [14] is 2 weeks - 3 weeks. Further, in data set [15], the “Hepatotoxicity (benign tumour)” value stood at 0. Moreover, the “Hepatotoxicity (mechanism)” value in [16] was “Allergic”.

For `CC(C(=O)O)c1ccc2c(c1)[nH]c1ccc(Cl)cc12` (stereo not given) [CARPROFEN], the “Hepatotoxicity (malignant tumour)” value in data set [1] worked out at 0. In addition, the “Hepatotoxicity (acute)” value worked out at 0 in data set [2] and 0% in data set [5]. In addition, in data set [3], the “Hepatotoxicity (association with vascular disease)” value is on record as 0. In addition, in data set [4], the “Hepatotoxicity (choleostasis)” value stood at 0. Also, the “Hepatotoxicity (cirrhosis)” value in [6] worked out at 0. The “Hepatotoxicity (granulomatous hepatitis)” value in [7] turned out to be 0. In data set [8], the “Hepatotoxicity (chronic liver disease)” value amounted to 0. Besides, the “Hepatotoxicity (moderate)” value came out at 56.3% in data set [9] and 5 in [10]. Moreover, the “Hepatotoxicity (steatosis)” value in data set [11] is 0. Also, the “Hepatotoxicity (severe hepatitis)” value in data set [12] is 0. For the same molecule, the “Hepatotoxicity (cytolytic)” value in data set [13] stood at 0. Further, in data set [14], the “Hepatotoxicity (time to onset)” value was 1 week - 1 month. In addition, the “Hepatotoxicity (benign tumour)” value in data set [15] is recorded as 0. For the same molecule, in data set [16], the “Hepatotoxicity (mechanism)” value is recorded as “Dose-dependant”.
